Experimental data reported in patent US20050272040A1, “Method for increasing synaptic growth or plasticity” (priority 2002, published 2005).

Test system: hippocampal cells
Experiment: Real-time RT-PCR of genes induced by neurotrophin treatment of hippocampal cultures
Assay type: cell-based, rat
Settings: 50 ng/mL, RT-PCR vs control, average ± standard error
Method: The molecular genetics underlying BDNF-evoked plasticity were examined by expression profiling using cDNA microarrays on a population of hippocampal cells in vitro. Synaptic effects of BDNF are observed within 20 minutes of exposure (Levine et al. (1996) supra; Lessmann and Heumann (1998) supra; Schinder et al. (2000) supra). A 3-hour BDNF treatment has been used to identify several genes with roles in synaptic plasticity (Thakker-Varia et al. (2001) supra). Consequently, to reveal immediate, as well as downstream transcriptional changes, both acute (20 minutes) and longer treatment (3 hours) with BDNF were used herein. […] Two independent Atlas arrays were performed using RNA from hippocampal cells treated for either 20 minutes or 3 hours of BDNF (50 ng/mL) and control sister cultures.
Of those genes selected, the regulation of 7% at 20 minutes and 40% at 3 hours were validated, although the magnitude of regulation was not always identical to that observed on the microarray. To focus on genes specifically involved in plasticity, a related neurotrophin, nerve growth factor (NGF), not inducing synaptic plasticity (Levine et al. (1996) supra), served as a control.
Time-mated pregnant rats were sacrificed by CO2 asphyxiation in accordance with institutional guidelines for care and use of animals. Fetuses were removed by caesarean section and transferred to a sterile petri dish with phosphate-buffered saline. Fetal hippocampi were dissected from surrounding brain tissue and meninges were completely removed. Low-density cultures of dissociated embryonic day 18 rat hippocampi (Sprague Dawley from Hilltop Laboratories, Scottsdale, Pa.) were prepared using standard methods (Thakker-Varia et al. (2001) supra). Briefly, pooled tissue from each litter was mechanically dissociated in nutrient medium containing 7.5% fetal bovine serum and plated on poly-D-lysine-coated culture dishes at 350,000 cells/dish. Cultures were maintained in serum-free medium (Thakker-Varia et al., 2001) for 10-14 days and contained pure neurons.
Total cellular RNA was prepared from neuronal cultures treated with either BDNF (50 ng/ml) or vehicle (water) for either 20 min or 3 hr by the guanidine isothiocyanate method and CsCl gradients (Thakker-Varia et al., 2001). DNAse-treated total RNA was prepared from neurotrophin or control hippocampal cultures and reverse transcribed using gene specific primers. Radioactively labeled probes were then hybridized to Atlas Arrays Rat 1.2 (Clontech, Palo Alto, Calif.) according to manufacturer's protocol. Arrays were performed in duplicate with an independent source of RNA. The hybridization pattern was analyzed on a phosphorimager and normalized to the global hybridization signal. Analysis was performed by Clontech using 1.7-fold change as criteria for significance. All transcriptional changes were confirmed by real time RT-PCR on independent samples (see below).
cDNA (100 μl) was prepared from 2 μg control or BDNF-treated RNA using random primers and Superscript II reverse transcriptase. 25 μl PCR reactions were then carried out using gene specific primers designed by Primer Express software and TaqMan MGB probes (Applied Biosystems 7000 Sequence Detection System, Foster City, Calif.). Duplicate wells were included for each condition and primer pair. Primers specific to the housekeeping gene, glyceraldehyde-3-phosphate dehydrogenase (GAPDH) were used as an internal control. Data analysis was performed according to the protocol provided by Applied Biosystems.

BDNF: neurotrophin, 50 ng/ml, Preprotech; induces synaptic plasticity in hippocampal neurons
Fold Change Arc (3 Hour BDNF Treatment): 34.8 ± 4.3 fold
Fold Change CyclinD1 (3 Hour BDNF Treatment): 3.3 ± 0.5 fold
Fold Change EGR1 (3 Hour BDNF Treatment): 6.6 ± 0.9 fold
Fold Change Fra2 (3 Hour BDNF Treatment): 2.3 ± 0.4 fold
Fold Change Kv + 1.1 (3 Hour BDNF Treatment): 1.4 ± 0.1 fold
Fold Change Na + ch (3 Hour BDNF Treatment): 1.8 ± 0.2 fold
Fold Change PTP1B (3 Hour BDNF Treatment): 1.4 ± 0.1 fold
Fold Change SSTR4 (3 Hour BDNF Treatment): 1.7 ± 0.1 fold
Fold Change SgII (3 Hour BDNF Treatment): 5.1 ± 1.2 fold
Fold Change VGF (3 Hour BDNF Treatment): 6.5 ± 1.5 fold
Fold Change c-fos (3 Hour BDNF Treatment): 2.3 ± 0.4 fold
Fold Change NPY (3 Hour BDNF Treatment, n = 5): 1.9 ± 0.3 fold
Fold Change UNC5H2 (3 Hour BDNF Treatment, n = 5): 2.2 ± 0.6 fold
Fold Change Arc (20 Minute BDNF Treatment): 13.7 ± 5.0 fold
Fold Change EGR1 (20 Minute BDNF Treatment): 4.3 ± 0.8 fold
Fold Change c-fos (20 Minute BDNF Treatment): 2.2 ± 0.4 fold
